In BindingDB's records for PubMed 36166643 (University of Santiago De Compostela, 2022):
pEC50: −log10 of the molar value.

Test: Induction of CYP24A1 (unknown orgin) transcriptional activity trasfected in human MCF7 cells incuabted for 48 hrs by luciferase reporter gene assay

Row | pEC50 | Structure (SMILES)
1 | 8.25 | C=C1/C(=C\C=C(/CCCCCC(C)(C)O)c2cccc(CCCCCC(C)(C)O)c2)C[C@@H](O)C[C@@H]1O
2 | 8.52 | C=C1/C(=C\C=C\c2cc(CCCCCC(C)(C)O)cc(CCCCCC(C)(C)O)c2)C[C@@H](O)C[C@@H]1O
